The structures appear in SMILES notation. Bounds are passed on as bounds.

For the test, the target named is T1, full-length human Mineralocorticoid Receptor (MR) (Homo sapiens, UniProt P08235).
T1 construct: host or cells: PathHunter CHO-K1 cells
T1 sequence (P08235 1-984): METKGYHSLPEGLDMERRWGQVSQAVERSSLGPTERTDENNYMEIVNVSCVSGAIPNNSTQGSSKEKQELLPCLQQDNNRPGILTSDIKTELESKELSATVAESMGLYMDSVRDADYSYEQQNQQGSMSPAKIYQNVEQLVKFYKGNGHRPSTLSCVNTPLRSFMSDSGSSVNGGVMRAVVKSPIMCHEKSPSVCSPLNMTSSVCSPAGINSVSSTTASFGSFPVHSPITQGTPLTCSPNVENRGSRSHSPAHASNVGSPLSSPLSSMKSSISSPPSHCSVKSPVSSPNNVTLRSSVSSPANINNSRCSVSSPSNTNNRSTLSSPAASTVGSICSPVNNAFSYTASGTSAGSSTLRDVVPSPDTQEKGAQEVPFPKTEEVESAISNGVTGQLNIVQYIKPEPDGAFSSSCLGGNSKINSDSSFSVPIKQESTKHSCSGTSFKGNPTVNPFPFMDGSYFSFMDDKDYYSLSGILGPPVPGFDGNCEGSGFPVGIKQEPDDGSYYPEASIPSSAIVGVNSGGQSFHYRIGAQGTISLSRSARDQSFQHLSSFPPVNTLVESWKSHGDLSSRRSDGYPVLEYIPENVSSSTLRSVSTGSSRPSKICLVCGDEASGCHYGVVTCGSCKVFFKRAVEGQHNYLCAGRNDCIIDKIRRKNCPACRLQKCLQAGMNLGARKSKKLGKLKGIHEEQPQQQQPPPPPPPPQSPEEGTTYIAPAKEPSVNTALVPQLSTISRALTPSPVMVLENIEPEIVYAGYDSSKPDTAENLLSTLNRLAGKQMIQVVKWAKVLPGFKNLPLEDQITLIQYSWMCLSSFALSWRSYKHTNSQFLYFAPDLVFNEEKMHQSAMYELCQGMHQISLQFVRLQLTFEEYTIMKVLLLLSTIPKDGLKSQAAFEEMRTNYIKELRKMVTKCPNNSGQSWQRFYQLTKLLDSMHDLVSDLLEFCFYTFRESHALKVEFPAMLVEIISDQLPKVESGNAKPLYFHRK
Kind of test: human MR NH Pro assay (PathHunter Protein:Protein interaction assay), MR antagonist activity. It counts as cell-based. As to conditions: PathHunter CHO-K1 cells overexpressing human MR; aldosterone about 0.3 nM; 6 hours at 37° C.; luminescence; read-out: Primary Assay IP rating (IP = inflection point for a given dose-response titration curve). The source says:
The activity of the compounds of the present invention regarding mineralocorticoid receptor antagonism can be evaluated using the following assay.
Assessment of MR Potency in HMR NH Pro Assay
The human MR NH Pro assay is a commercially available PathHunter™ Protein:Protein interaction assay (DiscoveRx; http://www.discoverx.com/nhrs/prod-nhrs.php) that measures the ability of compounds to antagonize full-length human Mineralocorticoid Receptor (MR) binding to a coactivator peptide.
6. Test compounds are titrated starting at 4.4 mM, 10-point titration in 1:3 dilution.
3. Add 5 μL 6× agonist (final aldosterone concentration should be about 0.3 nM to about 1.0 nM) to all wells (using the PlateMate Plus.)
• (ThermoFisher) (except those wells in columns 23 and 24) 4. Add 5 uL of assay media to all wells in column 23 and 24. 5. Incubate 6 hrs at 37° C., 5% CO2. 6. Add 15 uL 3× DiscoveRx detection reagent to each well. 7. Incubate 1 hour at room temperature (keep plates stored in the dark). 8. Read plates on Envision (PerkinElmer) luminesence plate reader and analyze using ADA.

Consider `COC(=O)C(c1ccc(F)cc1Cl)n1ccc2cccc(F)c21` (centres unmarked) [Compound 15, methyl (2-chloro-4-fluorophenyl)(7-fluoro-1H-indol-1-yl)acetate], for which the IC50 was 500 to 5000 nM.
As to `COC(=O)C(c1ccc(F)cc1Cl)n1ccc2cccc(OCc3ccccc3)c21` (centres unmarked) [Compound 16, methyl [7-(benzyloxy)-1H-indol-1-yl](2-chloro-4-fluorophenyl)acetate], the IC50 lay within 500 to 5000 nM.
Take `CC(C)(C)OC(=O)C(c1ccc(Cl)cc1)n1ccc2c(NS(C)(=O)=O)cccc21` (centres unmarked) [Compound 18, tert-butyl (4-chlorophenyl){4-[(methylsulfonyl)amino]-1H-indol-1-yl}acetate]: the IC50 was in the range of 500 to 5000 nM.
As to `COC(=O)C(c1ccc(Cl)cc1)n1ncc2c(NS(C)(=O)=O)cccc21` (centres unmarked) [Compound 19, methyl (4-chlorophenyl){4-[(methylsulfonyl)amino]-1H-indazol-1-yl}acetate], the IC50 is 500 to 5000 nM.
In the case of `COC(=O)C(c1ccc(Br)cc1)n1ccc2c(NS(C)(=O)=O)cccc21` (centres unmarked) [Compound 24, methyl (4-bromophenyl){4-[(methylsulfonyl)amino]-1H-indol-1-yl}acetate] it was 500 to 5000 nM; in that of `CCC(C(=O)OC(C)(C)C)(c1ccc(Cl)cc1)n1ccc2c(NS(C)(=O)=O)cccc21` (centres unmarked) [Compound 26, tert-Butyl 2-(4-chlorophenyl)-2-{4-[(methylsulfonyl)amino]-1H-indol-1-yl}butanoate], 100 to 500 nM; in that of `CC(C)(C)OC(=O)C(CC#N)(c1ccc(Cl)cc1)n1ccc2c(NS(C)(=O)=O)cccc21` (centres unmarked) [Compound 27, tert-Butyl 2-(4-chlorophenyl)-3-cyano-2-{4-[(methylsulfonyl)amino]-1H-indol-1-yl}propanoate], 100 to 500 nM.
For the compound `COC(=O)C(C)(c1ccc(Cl)cc1Cl)n1ccc2c(NS(C)(=O)=O)cccc21` (centres unmarked) [Compound 29, Methyl 2-(2,4-dichlorophenyl)-2-{4-[(methylsulfonyl)amino]-1H-indol-1-yl}propanoate], the IC50 is 500 to 5000 nM.
Turning to `CCC(C(=O)OC)(c1ccc(Cl)cc1Cl)n1ccc2c(NS(C)(=O)=O)cccc21` (centres unmarked) [Compound 30, Methyl 2-(2,4-dichlorophenyl)-2-{4-[(methylsulfonyl)amino]-1H-indol-1-yl}butanoate], the IC50 is 100 to 500 nM.
For the compound `CCC(C(=O)OC)(c1ccc(F)cc1Cl)n1ccc2c(NS(C)(=O)=O)cccc21` (centres unmarked) [Compound 31, Methyl 2-(2-chloro-4-fluorophenyl)-2-{4-[(methylsulfonyl)amino]-1H-indol-1-yl}butanoate], the IC50 lay within 100 to 500 nM.
In the case of `CCC(C(=O)OC)(c1ccc(Cl)cc1)n1ncc2c(NS(C)(=O)=O)cccc21` (centres unmarked) [Compound 32, Methyl 2-(4-chlorophenyl)-2-{4-[(methylsulfonyl)amino]-1H-indazol-1-yl}butanoate], the IC50 fell in the range of 100 to 500 nM.
Regarding `C=CCC(C(=O)OC)(c1ccc(Cl)cc1)n1ccc2c(NS(C)(=O)=O)cccc21` (centres unmarked) [Compound 33, Methyl 2-(4-chlorophenyl)-2-{4-[(methylsulfonyl)amino]-1H-indol-1-yl}pent-4-enoate], the IC50 fell in the range of 100 to 500 nM.
In the case of `COC(=O)CC(C(=O)OC)(c1ccc(Cl)cc1)n1ccc2c(NS(C)(=O)=O)cccc21` (centres unmarked) [Compound 35, Dimethyl 2-(4-chlorophenyl)-2-{4-[(methylsulfonyl)amino]-1H-indol-1-yl}butanedioate], the IC50 is under 100 nM.
As to `CC[C@](C(N)=O)(c1ccc(Cl)cc1)n1ccc2c(NS(C)(=O)=O)cccc21` [Compound 40, (R)-2-(4-chlorophenyl)-2-{4-[(methylsulfonyl)amino]-1H-indol-1-yl}butanamide], the IC50 was 100 to 500 nM.
Regarding `CC[C@](C(=O)NC1CC1)(c1ccc(Cl)cc1)n1ccc2c(NS(C)(=O)=O)cccc21` [Compound 41, (R)-2-(4-chlorophenyl)-N-cyclopropyl-2-{4-[(methylsulfonyl)amino]-1H-indol-1-yl}butanamide], the IC50 fell in the range of 100 to 500 nM.
As to `CCC(C(=O)NCCOC)(c1ccc(Cl)cc1)n1ccc2c(NS(C)(=O)=O)cccc21` (centres unmarked) [Compound 42, 2-(4-chlorophenyl)-N-(2-methoxyethyl)-2-{4-[(methylsulfonyl)amino]-1H-indol-1-yl}butanamide], the IC50 is 500 to 5000 nM.
To `CC[C@](C(=O)NCc1ccccc1)(c1ccc(Cl)cc1)n1ccc2c(NS(C)(=O)=O)cccc21` [Compound 43, (R)—N-benzyl-2-(4-chlorophenyl)-2-{4-[(methylsulfonyl)amino]-1H-indol-1-yl}butanamide] belongs 500 to 5000 nM.
For `CC[C@](C(=O)NC(C)C)(c1ccc(Cl)cc1)n1ccc2c(NS(C)(=O)=O)cccc21` [Compound 44, (R)-2-(4-chlorophenyl)-N-(1-methylethyl)-2-{4-[(methylsulfonyl)amino]-1H-indol-1-yl}butanamide], the IC50 fell in the range of 100 to 500 nM.
In the case of `CCNC(=O)C(CC)(c1ccc(Cl)cc1)n1ccc2c(NS(C)(=O)=O)cccc21` (centres unmarked) [Compound 46, 2-(4-chlorophenyl)-N-ethyl-2-{4-[(methylsulfonyl)amino]-1H-indol-1-yl}butanamide] it was 100 to 500 nM.
Regarding `CCC(C(=O)NCCC#N)(c1ccc(Cl)cc1)n1ccc2c(NS(C)(=O)=O)cccc21` (centres unmarked) [Compound 48, 2-(4-chlorophenyl)-N-(2-cyanoethyl)-2-{4-[(methylsulfonyl)amino]-1H-indol-1-yl}butanamide], the IC50 lay within 500 to 5000 nM.
As for `CCC(C(=O)NCCF)(c1ccc(Cl)cc1)n1ccc2c(NS(C)(=O)=O)cccc21` (centres unmarked) [Compound 49, 2-(4-chlorophenyl)-N-(2-fluoroethyl)-2-{4-[(methylsulfonyl)amino]-1H-indol-1-yl}butanamide], the IC50 fell in the range of 100 to 500 nM.
As for `CCC(C(=O)NCCc1ccccc1)(c1ccc(Cl)cc1)n1ccc2c(NS(C)(=O)=O)cccc21` (centres unmarked) [Compound 50, 2-(4-chlorophenyl)-2-{4-[(methylsulfonyl)amino]-1H-indol-1-yl}-N-(2-phenylethyl)butanamide], the IC50 is 500 to 5000 nM.
Take `CCC(C(=O)NCC#N)(c1ccc(Cl)cc1)n1ccc2c(NS(C)(=O)=O)cccc21` (centres unmarked) [Compound 51, 2-(4-chlorophenyl)-N-(cyanomethyl)-2-{4-[(methylsulfonyl)amino]-1H-indol-1-yl}butanamide]: the IC50 was under 100 nM.
Take `CCC(C(=O)NCC(=O)OC)(c1ccc(Cl)cc1)n1ccc2c(NS(C)(=O)=O)cccc21` (centres unmarked) [Compound 52, methyl N-[2-(4-chlorophenyl)-2-{4-[(methylsulfonyl)amino]-1H-indol-1-yl}butanoyl]glycinate]: the IC50 was 100 to 500 nM.
Take `CNC(=O)C(CC#N)(c1ccc(Cl)cc1)n1ccc2c(NS(C)(=O)=O)cccc21` (centres unmarked) [Compound 53, 2-(4-chlorophenyl)-3-cyano-N-methyl-2-{4-[(methylsulfonyl)amino]-1H-indol-1-yl}propanamide]: the IC50 fell in the range of 100 to 500 nM.
Consider `CS(=O)(=O)Nc1cccc2c1ccn2C(CC#N)(C(=O)NCc1ccccc1)c1ccc(Cl)cc1` (centres unmarked) [Compound 54, N-benzyl-2-(4-chlorophenyl)-3-cyano-2-{4-[(methylsulfonyl)amino]-1H-indol-1-yl}propanamide], for which the IC50 fell in the range of 100 to 500 nM.
On to `CS(=O)(=O)Nc1cccc2c1ccn2C(CC#N)(C(=O)NCC(F)(F)F)c1ccc(Cl)cc1` (centres unmarked) [Compound 55, 2-(4-chlorophenyl)-3-cyano-2-{4-[(methylsulfonyl)amino]-1H-indol-1-yl}-N-(2,2,2-trifluoroethyl)propanamide], for which the IC50 was 100 to 500 nM.
Consider `CNC(=O)C(CC1CC1)(c1ccc(Cl)cc1)n1ccc2c(NS(C)(=O)=O)cccc21` (centres unmarked) [Compound 56, 2-(4-chlorophenyl)-3-cyclopropyl-N-methyl-2-{4-[(methylsulfonyl)amino]-1H-indol-1-yl}propanamide], for which the IC50 was 100 to 500 nM.
As for `CC[C@@](c1ccc(Cl)cc1)(c1noc(C)n1)n1ccc2c(NS(C)(=O)=O)cccc21` [Compound 57], the IC50 was under 100 nM.

For the origin of these results see patent US8933113B2 (Merck Sharp & Dohme Corp., priority 2011, dated 2015).
